System: Mus musculus
Assay: Antiepileptic potency in the maximal electroshock seizure test. Compound was administered orally to male NMRI mice
Assay type: functional
Details: po

Row | SMILES | ED50
1 | CN1C(=O)CC(c2ccccc2)(c2ccccc2)C1=O | 357 µmol/kg
2 | O=C1CC(c2ccccc2)(c2ccccc2)C(=O)N1 | 107 µmol/kg
3 | CN1C(=O)NC(c2ccccc2)(c2ccccc2)C1=O | 149 µmol/kg
4 | CC1CC(c2ccccc2)(c2ccccc2)C(=O)N1C (stereo unspecified) | 3830 µmol/kg
5 | O=C1NCNC1(c1ccccc1)c1ccccc1 [DOXENITOIN] | 129 µmol/kg
6 | O=C1NC(=O)C(c2ccccc2)(c2ccccc2)N1 [PHENYTOIN] | 28 µmol/kg

Source: ChEMBL document CHEMBL1122751, “Structure-activity relationships of phenytoin-like anticonvulsant drugs” (1984)
